Results on six compounds are retold here after patent US20260285880A1, “SUBSTITUTED DIHYDROTHIENOPYRIMIDINE COMPOUND, PREPARATION METHOD THEREFOR, AND USE THEREOF” (SHANGHAI YIDI BIOTECHNOLOGY CO., LTD., priority 2023, published 2026).

Assay [1] deals with T1, Flpin-293-PDE4B2 cells (Homo sapiens, UniProt Q07343). The following applies: for IC50: read-out: PDE4B2 IC50 Cell, Foskolin; for Cell Inhibition % @10 nM: 0.01 µM; for Cell Inhibition % @1 nM: 0.001 µM; for Cell Inhibition % @100 nM: 0.1 µM.
Assay [2] deals with T2, PDE4B2 (Homo sapiens, UniProt Q07343). As to the kind of experiment: biochemical.
Protocol: (§1) All compounds were dissolved in DMSO into 10 mM or 20 mM stock solutions. The compound to be tested was diluted with DMSO in a 3-fold gradient. 20 nL/well of the compound or a DMSO control was transferred to a 384-well plate by using Echo 550 instrument. The plate was sealed with a membrane and centrifuged for 1 minute. A 2× enzyme solution was prepared with an assay buffer, and 2 uL/well of the 2× enzyme solution was added, followed by equilibration at room temperature for 10 minutes. A 2× Cyclic-3′,5′-AMP substrate solution was prepared with an assay buffer, and 2 uL/well of the 2× substrate solution was added, followed by incubation at room temperature for 60 minutes. 4 μL of AMP-glo reagent was added, followed by incubation at room temperature for 60 minutes. 8 ul of an AMP detection solution was added, followed by incubation at room temperature for 60 minutes. An RLU value was read on Envision 2105 plate reader. The RLU value represents the concentration of the product AMP. Inhibition rate %=(1−(RLUpositive control−RLUcomnpound)/(RLUpositive control−RLUnegative control))*100. The IC50 value was then calculated by Graphpad 8.0 software using Y=Bottom+(Top−Bottom)/(1+10^((LogIC50−X)*HillSlope)).
For the next assay, the target named is PDE4D2 (Homo sapiens, UniProt Q08499). As to the kind of experiment: PDE4D2 enzyme experiment (AMP-Glo).
The target of assay [3] is T1, Flpin-293-PDE4B2 cells. As to the kind of experiment: cell-based.
Assay [4] has as its target T2, PDE4B2. Particulars: read-out: PDE4B2 IC50; enzyme assay.
Protocol: as §1
[5] abbreviates: read-out: PDE4D2 IC50 Binding, enzyme assay.

The structures appear in SMILES notation. Read-outs that look alike come from different tables or passages of the source.

Sequence of PDE4D2 (Q08499 303-809 limits assumed): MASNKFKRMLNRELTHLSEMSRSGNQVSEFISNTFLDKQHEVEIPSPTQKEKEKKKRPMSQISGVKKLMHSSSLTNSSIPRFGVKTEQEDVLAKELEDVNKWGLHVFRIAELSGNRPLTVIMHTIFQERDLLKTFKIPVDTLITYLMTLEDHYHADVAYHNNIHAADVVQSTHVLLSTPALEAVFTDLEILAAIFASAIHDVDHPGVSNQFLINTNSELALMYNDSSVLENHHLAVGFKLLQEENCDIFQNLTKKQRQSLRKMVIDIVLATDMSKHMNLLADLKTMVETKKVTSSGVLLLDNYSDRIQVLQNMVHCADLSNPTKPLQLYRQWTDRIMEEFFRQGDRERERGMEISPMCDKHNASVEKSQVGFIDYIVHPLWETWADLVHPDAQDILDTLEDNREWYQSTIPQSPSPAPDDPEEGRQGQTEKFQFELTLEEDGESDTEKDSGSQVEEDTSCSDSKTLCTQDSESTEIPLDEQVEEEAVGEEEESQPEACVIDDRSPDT
T1 sequence (Q07343 1-564 isoform Q07343-2): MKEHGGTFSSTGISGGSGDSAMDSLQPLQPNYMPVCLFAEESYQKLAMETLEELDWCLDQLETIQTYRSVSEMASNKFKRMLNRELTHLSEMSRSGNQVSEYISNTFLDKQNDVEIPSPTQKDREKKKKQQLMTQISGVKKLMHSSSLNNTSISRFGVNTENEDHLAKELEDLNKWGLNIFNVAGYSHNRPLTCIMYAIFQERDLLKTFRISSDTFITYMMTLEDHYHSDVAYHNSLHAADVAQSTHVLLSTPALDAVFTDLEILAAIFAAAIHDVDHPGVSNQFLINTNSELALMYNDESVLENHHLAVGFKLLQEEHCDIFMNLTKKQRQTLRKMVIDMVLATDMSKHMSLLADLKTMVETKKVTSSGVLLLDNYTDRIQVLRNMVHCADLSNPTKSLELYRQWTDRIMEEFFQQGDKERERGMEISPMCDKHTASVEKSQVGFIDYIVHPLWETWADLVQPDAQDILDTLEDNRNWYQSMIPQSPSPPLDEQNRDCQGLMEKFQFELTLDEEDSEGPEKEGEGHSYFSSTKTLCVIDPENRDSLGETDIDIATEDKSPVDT
T2 sequence (Q07343 1-564 isoform Q07343-2, species assumed): as the sequence (Q07343 1-564 isoform Q07343-2) above

A word on the IC50: it is the concentration needed to halve the response being measured. Turning to `C[C@@H]1c2ccc(Cl)cc2CCN1c1nc2c(c(NC3(CO)CCC3)n1)[S@+]([O-])CC2` [Compound 29], the IC50 on Flpin-293-PDE4B2 cells [1] was 20.9 nM.
Turning to `[O-][S@+]1CCc2nc(N3CCc4c(ccc5[nH]ncc45)C3)nc(NC3(CO)CCC3)c21` [Compound 118, (R)-4-((1-(hydroxymethyl)cyclobutyl)amino)-2-(3,6,8,9-tetrahydro-7H-pyrazolo[4,3-f]isoquinolin-7-yl)-6,7-dihydrothieno[3,2-d]pyrimidine 5-oxide], the IC50 at PDE4B2 [2] was 0.414 nM; against PDE4D2, 0.748 nM.
The term inhibition denotes the percentage by which the read-out fell short of the control. As for `[O-][S+]1CCc2nc(N3CCc4cc(N5CCCC5C(F)(F)F)ccc4C3)nc(NC3(CO)CCC3)c21` (stereo not shown) [Compound 157], on Flpin-293-PDE4B2 cells [3] (read-out: Cell Inhibition % @1 nM, 1 nM, Flpin-293-PDE4B2 cells), the inhibition at 0.001 µM is 8.27%. On Flpin-293-PDE4B2 cells [3] (read-out: Cell Inhibition % @100 nM, 100 nM, Flpin-293-PDE4B2 cells), the inhibition at 0.1 µM was 83.1%. Further, on Flpin-293-PDE4B2 cells [1], the “Cell Inhibition % @10 nM” value is given as 23.21%.
Consider `[O-][S+]1CCc2nc(N3CCc4cc(N5CCCC5C(F)(F)F)ccc4C3)nc(NC3(CO)CCC3)c21` (stereo not shown) [Compound 158], for which the IC50 on PDE4B2 [4] was found to be 0.273 nM. At PDE4D2 (setting [5]), the half-inhibitory concentration (IC50) is 0.653 nM. Besides, at Flpin-293-PDE4B2 cells [1], the “Cell Inhibition % @1 nM” value stood at 14.79%, the “Cell Inhibition % @10 nM” value amounted to 61.64% and the “Cell Inhibition % @100 nM” value was found to be 99.33%.
On to `N#CC1CCN(c2ccc3c(c2)CCN(c2nc4c(c(NC5(CO)CCC5)n2)[S+]([O-])CC4)C3)C1` (stereo not shown) [Compound 160], for which the half-maximal inhibitory concentration (IC50) at PDE4B2 [4] is 0.224 nM. The IC50 at PDE4D2 (setting [5]) stood at 0.748 nM. Also, at Flpin-293-PDE4B2 cells [1], the “Cell Inhibition % @1 nM” value is on record as 15.06%, the “Cell Inhibition % @10 nM” value is reported as 75.05% and the “Cell Inhibition % @100 nM” value was determined as 99.84%.
For the compound `C[C@H]1c2ccc(N3CCCC3)cc2CCN1c1nc2c(c(NC3(CO)CCC3)n1)[S+]([O-])CC2` (stereo partly shown) [Compound 167], the values for the IC50 on PDE4B2 [4], on PDE4D2 (setting [5]) and at Flpin-293-PDE4B2 cells [1] were 0.087 nM, 0.993 nM and 20.7 nM, respectively.
